# Test results published in patent US20240374580A1, “SMALL MOLECULE INHIBITORS OF AUTOPHAGY AND HISTONE DEACTYLASES AND USES THEREOF” (priority 2021, published 2024).
# Where two headings read alike, the source gives them in different places.
# Tests used:
# [1] = Procedure: FIG. 13. […] Mice were treated with vehicle, ROC-325, or HCQ as indicated daily for 42 consecutive days. […] Mean±SD.
# (§1) The majority of lysosomal proteases that control the autophagy-mediated degradation of proteins and organelles require a strict acidic pH microenvironment for their enzymatic activity. Based on this, lysosomal acidity is commonly used as a marker of autophagy status. We treated leukemia cells with ROC-325 and used LysoSensor Green to evaluate the effects of drug treatment on lysosomal pH.
# [2] = Phase I clinical trial of HCQ with vorinostat, pharmacokinetic analyses; settings: humans
# clinical = settings: human, in vivo
# leukemia cells = experiment: LysoSensor Green lysosomal pH (confocal microscopy, FACS); type: cell-based; settings: 1 μM, 6 h
# Procedure: FIG. 12. Treatment with ROC-325 leads to lysosomal deacidification. Cells were treated with 1 μM ROC-325 for 6 h, stained with Lysosensor Green and propidium iodide (PI, nuclear counterstain) and then visualized by confocal microscopy.
# (§2) Example data from our published studies are shown here.
# [3] = Oral availability of ROC-325; settings: in vivo
# Source text: as §2
# MV4-11 cells = experiment: Transmission electron microscopy of autophagosomes; type: cell-based; settings: 1 μM
# Procedure: FIG. 11. ROC-325 triggers the formation of autophagosomes with undegraded cargo. MV4-11 cells were treated with 1 μM ROC-325 as indicated and visualized by transmission electron microscopy (TEM).
# as §2
# MCT-injected rats = experiment: RVP/RVSP in control and MCT-injected rats; type: in vivo, rat; settings: 10 mg/kg daily for 4w
# Procedure: (§3) FIG. 14A-E. ROC-325 has promising therapeutic activity in models of PH. A-C: in vivo intact animal experiments (ROC-325 was administered daily at 10 mg/kg for 4w). (A) Representative record showing right ventricular pressure (RVP) in control and ROC-treated rats during normoxia. […] (B) Representative record showing right ventricular pressure (RVP) in control rats, MCT-injected rats and MCT-injected rats treated with ROC. (C) Summarized data showing right ventricular systolic pressure (RVSP), a surrogate measure for pulmonary arterial systolic pressure ([…]), in control, MCT-rats (treated with vehicle) and MCT-rats treated with ROC. […] D-E: ex vivo experiment using isolated perfused/ventilated mouse lungs (ROC was applied via intrapulmonary perfusion for 5 min). (D) Representative record showing pulmonary arterial pressure (PAP) in isolated perfused/ventilated mouse lung before, during and after intrapulmonary arterial perfusion of 40 mM K+ (40K) in the absence or presence of ROC. (E) Summarized data showing 40K-induced increases in PAP before (control), during (ROC) and after (washout) application of ROC.
# (§4) Finally, we tested the therapeutic benefit of ROC-325 in models of experimental PH (FIG. 14). ROC-325 was administered to rats daily at 10 mg/kg for 4w under normoxic and hypoxic conditions. […]
# [4] = system: renal proximal tubal endothelial cells (RPTEC)
# Source text: as §1
# [5] = system: normal human CD34+ bone marrow (BM) cells
# Source text: as §1
# [6] = system: isolated perfused/ventilated mouse lungs; experiment: PAP in isolated perfused/ventilated mouse lungs (ROC-325); settings: intrapulmonary perfusion for 5 min, 40 mM K+
# Procedure: as §3, §4
# autophagy [7] = experiment: Autophagy markers LC3B and p62 after ROC-325; type: cell-based
# Source text: as §2
# autophagy [8] = experiment: Initial preclinical studies of potency against HCQ; settings: greater than HCQ
# Source text: as §2
# [9] = system: broad range of tumor types; settings: cited from earlier work
# human PASMC [10] = experiment: Ca2+ dynamics and whole-cell Ca2+ currents in PASMC; type: cell-based
# Procedure: (B) Summarized data showing the amplitude of increase in [Ca2+]cyt induced by application of 10 μM CPA in the absence (first peak) or presence (second peak) of 1.8 mM extracellular Ca2+ (n=44-54 PASMC). […] (D) Summarized data showing [Ca2+]cyt before (basal) and during (ATP) application of ATP in control and CHQ-treated PASMC. Means±SEM, *P<0.05. (E) Summarized data showing ATP-induced increases in [Ca2+]cyt in control and CHQ-treated PASMC. means±SEM *P<0.05. […] Means±SEM, *P<0.05. (G) The current-voltage (I-V) relationship curves constructed from current recordings in PASMC before (Cont), during (CHQ) and after (wash) application of CHQ.
# (§5) Similarly. […] Additionally.
# HPH in rats = experiment: Development of HPH in rats (hypoxia 10% O2 for 21 days); type: in vivo, rat; settings: 50 mg/kg/day, hypoxia 21 days
# Source text: (E) Representative H&E images of small PAs in Nor, Nor+CHQ, Hyp and Hyp+CHQ rats.
# as §5
# SuHx-PH rat model = experiment: Established PH in the SuHx rat model; type: in vivo; settings: 50 mg/kg/day for 2 weeks after 3 weeks SuHx
# Source text: FIG. 9A-C. […] (A) Representative right ventricular pressure (RVP).
# as §5
# [11] = system: isolated perfused and ventilated lungs; experiment: PAP in isolated perfused and ventilated lungs (CHQ); settings: 200 μM, intrapulmonary application
# Procedure: FIG. 5A-C. […] (A) Left, PAP in isolated perfused and ventilated lungs before, during and after repeated pulmonary arterial perfusion of 40 mM K+ (40K) solution.
# as §5
# rings of rat PA = system: rings of rat PA
# Procedure: Due to the key role of autophagy in the pathogenesis of many diseases, we (the inventors) were very interested in exploring the benefit of autophagy inhibition for other indications beyond cancer. […] Such experiments first quantified the vasorelaxant effect on rings of rat PA (FIG. 2). […] Similarly. […] Additionally. […] Rats were given a subcutaneous (s.c.) injection of 20 mg/kg SU5416 or vehicle, followed by hypoxia (SuHx) for 3 weeks (10% 02) and normoxia for an additional 2 weeks to elicit severe PH. […] The normoxic control group was exposed to room air only (21% 02) for a total of 5 weeks (Nor).
# human PASMC [12] = experiment: Autophagy markers P62 and LC3B in PASMC (Western blot, immunofluorescence); type: cell-based; settings: 20 μM, 24 h
# Source text: as §5
structure (smiles),measurement,setting,value
"CCN(CCO)CCCC(C)Nc1ccnc2cc(Cl)ccc12 (stereo not drawn) [HCQ, hydroxychloroquine]",mouse body weight,"[1]; mouse, in vivo",No significant loss of mouse body weight
same,maximum tolerated dose (MTD),[2],600 mg/day
same,Cmax,clinical,< 3000 nM
Cc1ccc(NCCN(C)CCNc2ccnc3cc(Cl)ccc23)c2c(=O)c3ccccc3sc12 [ROC-325],lysosomal pH (LysoSensor Green fluorescence),leukemia cells,stimulated lysosomal deacidification
same,oral bioavailability,[3],orally bioavailable
same,mouse body weight,[1]; daily for 42 consecutive days,No significant loss of mouse body weight
same,tolerability,"[1]; oral, daily, 42 days, mice",confirmed its tolerability
same,autophagosomes with undegraded cargo (TEM),MV4-11 cells,triggered the accumulation of autophagosomes with undegraded cargo
same,basal hemodynamics (RVP) in control rats,MCT-injected rats,no effect on basal hemodynamics
same,development of experimental PH (RVSP),MCT-injected rats; MCT-injected rats,significantly inhibited the development of experimental PH
same,therapeutic selectivity,[4],strong therapeutic selectivity
same,therapeutic selectivity,[5],strong therapeutic selectivity
same,high K+-induced pulmonary vasoconstriction (PAP),[6],acutely inhibits high K+-induced pulmonary vasoconstriction
same,autophagy marker LC3B,autophagy [7],stimulated the autophagy marker LC3B
same,p62,autophagy [7],accumulation of p62
same,potency relative to HCQ,autophagy [8],approximately 10 fold
same,single agent anticancer activity compared to HCQ,[9]; broad range of tumor types,significantly superior single agent anticancer activity
same,dose needed to inhibit autophagy compared to HCQ,[9],inhibits autophagy at significantly lower doses
"CCN(CC)CCCC(C)Nc1ccnc2cc(Cl)ccc12 (stereo not drawn) [CHQ, chloroquine]",store-operated Ca2+ entry,"human PASMC [10]; 200 μM, 10 μM CPA",inhibits store-operated Ca2+ entry
same,whole-cell Ca2+ currents,human PASMC [10]; test pulse of +10 mV from −70 mV,reduces whole-cell Ca2+ currents
same,PA wall thickness,HPH in rats,reduced PA wall thickness
same,right ventricular systolic pressure (RVSP),HPH in rats,significantly reduced RVSP
same,progression of established PH,SuHx-PH rat model,significant therapeutic benefit against established PH progression
same,reversal of established PH,SuHx-PH rat model,partially reversed established PH
same,40K-induced increases in PAP,[11],could antagonize the 40K-induced increases in PAP
same,pulmonary vasoconstriction induced by high K+ or hypoxia,[11],attenuates pulmonary vasoconstriction induced by high K+ concentrations or hypoxia
same,role of the endothelium in the vasorelaxant effect,"rings of rat PA; 200 μM, endothelium-intact or endothelium-denuded rings pre-constricted with 1 μM PE",endothelium independent
same,effect of K+ channel blockade on pulmonary vasodilation,"rings of rat PA; 200 μM, rings pretreated with paxilline, TEA or ChTX",does not affect the ability of CHQ to induce pulmonary vasodilation
same,isometric tension in isolated PA rings,rings of rat PA; rings constricted with 1 μM phenylephrine (PE),decreased isometric tension
same,autophagy (p62 and LC3B),human PASMC [12],inhibited autophagy
